The target of this test is T1, RNR (RNR1:RNR2 1:1) (Homo sapiens, UniProt P23921).
T1 sequence (P23921 1-792): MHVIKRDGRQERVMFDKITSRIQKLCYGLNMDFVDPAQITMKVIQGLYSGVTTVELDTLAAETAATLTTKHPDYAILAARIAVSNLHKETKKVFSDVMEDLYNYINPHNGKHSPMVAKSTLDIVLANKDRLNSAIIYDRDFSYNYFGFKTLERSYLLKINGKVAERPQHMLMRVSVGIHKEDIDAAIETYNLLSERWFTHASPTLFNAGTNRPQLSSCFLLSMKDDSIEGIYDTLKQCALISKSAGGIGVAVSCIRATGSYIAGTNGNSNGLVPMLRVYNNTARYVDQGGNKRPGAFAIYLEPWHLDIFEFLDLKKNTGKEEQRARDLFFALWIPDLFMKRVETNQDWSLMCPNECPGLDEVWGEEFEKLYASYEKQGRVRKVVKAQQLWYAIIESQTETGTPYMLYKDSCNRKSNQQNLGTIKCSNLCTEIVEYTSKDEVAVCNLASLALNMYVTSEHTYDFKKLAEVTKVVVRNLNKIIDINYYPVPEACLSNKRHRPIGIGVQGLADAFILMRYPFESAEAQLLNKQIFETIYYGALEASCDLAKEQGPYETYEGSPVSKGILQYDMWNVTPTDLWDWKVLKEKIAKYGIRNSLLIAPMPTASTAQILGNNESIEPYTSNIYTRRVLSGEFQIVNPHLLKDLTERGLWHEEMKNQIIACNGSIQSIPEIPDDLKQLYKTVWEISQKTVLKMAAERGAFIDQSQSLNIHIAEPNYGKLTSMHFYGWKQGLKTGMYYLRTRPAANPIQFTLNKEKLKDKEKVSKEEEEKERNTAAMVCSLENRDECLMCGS
Kind of test: RNR enzyme activity, rapid-fire mass spectrometry (RFMS) assay. The format is biochemical. The conditions noted are these: RNR 50 nM, CDP 5 μM, ATP 1 mM, 37° C., 45 min, compounds screened up to 50 μM, read-out: RF/MS IC50. The protocol: A rapid-fire mass spectrometry (RFMS) assay was used to assess RNR enzyme activity using a 384 well plate and a robotic platform.
The plate layout included two validated reference compounds (Triapine (3-AP) and Hydroxyurea (HU)): • A dose response in duplicate; top concentration: 5 μM (3-AP) and 250 μM (HU), semi-log dilutions. • Spike wells in triplicate randomly spotted at four concentrations: • 250 μM, 100 μM, 30 μM and 2 μM for HU • 5 μM, 2 μM, 0.6 μM and 0.04 μM for 3-AP
First, the multidrop pipes were saturated for 30 minutes with enzymatic solution. Then 30 μL of Stop solution was distributed in column 24. Next, 15 μL of enzyme was distributed in column 1 to 24. Next, a pre-incubation step of 15 minutes at room temperature occurred, followed by distribution of 15 μL of substrate solution (column 1 to 24). Next, the plate was incubated for 45 minutes at 37° C. 30 μL of Stop solution was distributed to columns 1 to 23.
The final parameters for the enzyme reactions were: • Incubation: 37° C., 45 min • [CDP]: 5 μM; [ATP]: 1 mM; [NADPH]: No • [RNR] final: 50 nM with 1:1 (RNR1:RNR2) ratio • Final volume: 30 μL • Stop solution: 6% HCOOH containing 2 μM of 15
In the case of `Cc1ccc(F)c([C@@H](C)[C@H](NS(=O)(=O)N2CC3CCCC(C3)C2)c2n[nH]c(=O)o2)c1C` [Example 43, N-((1S,2R)-2-(6-fluoro-2,3-dimethylphenyl)-1-(5-oxo-4,5-dihydro-1,3,4-oxadiazol-2-yl)propyl)-3-zabicyclo[3.3.1]nonane-3-sulfonamide], the IC50 fell in the range of 1 to 10 µM.
The result for `Cc1ccc(F)c([C@H](C)[C@H](NS(=O)(=O)N2CCC(C(F)F)CC2)c2n[nH]c(=O)o2)c1C` [Example 44, 4-(difluoromethyl)-N-((1S,2S)-2-(6-fluoro-2,3-dimethylphenyl)-1-(5-oxo-4,5-dihydro-1,3,4-oxadiazol-2-yl)propyl)piperidine-1-sulfonamide] reads 1 to 10 µM; that for `Cc1ccc(F)c([C@@H](C)[C@H](NS(=O)(=O)N2CCC(C(F)F)CC2)c2n[nH]c(=O)o2)c1C` [Example 45, 4-(difluoromethyl)-N-((1S,2R)-2-(6-fluoro-2,3-dimethylphenyl)-1-(5-oxo-4,5-dihydro-1,3,4-oxadiazol-2-yl)propyl)piperidine-1-sulfonamide], 1 to 10 µM; that for `Cc1ccc(F)c(C(C)[C@H](NS(=O)(=O)N2CCC(OC(F)(F)F)CC2)c2n[nH]c(=O)o2)c1C` (stereo partly drawn) [Example 46, N-((1S)-2-(6-fluoro-2,3-dimethylphenyl)-1-(5-oxo-4,5-dihydro-1,3,4-oxadiazol-2-yl)propyl)-4-(trifluoromethoxy)piperidine-1-sulfonamide], 1 to 10 µM.
The result for `C#CC1CCN(S(=O)(=O)N[C@H](c2n[nH]c(=O)o2)[C@@H](C)c2c(F)ccc(C)c2C)CC1` [Example 47, 4-ethynyl-N-((1S,2S)-2-(6-fluoro-2,3-dimethylphenyl)-1-(5-oxo-4,5-dihydro-1,3,4-oxadiazol-2-yl)propyl)piperidine-1-sulfonamide] reads 10 to 100 µM.
Turning to `C#CC1CCN(S(=O)(=O)N[C@H](c2n[nH]c(=O)o2)[C@H](C)c2c(F)ccc(C)c2C)CC1` [Example 48, 4-ethynyl-N-((1S,2R)-2-(6-fluoro-2,3-dimethylphenyl)-1-(5-oxo-4,5-dihydro-1,3,4-oxadiazol-2-yl)propyl)piperidine-1-sulfonamide], the IC50 was 1 to 10 µM.
The result for `Cc1ccc(F)c(C(C)[C@H](NS(=O)(=O)N2CCC(C3CC3)CC2)c2n[nH]c(=O)o2)c1C` (stereo partly drawn) [Example 49, 4-cyclopropyl-N-((1S)-2-(6-fluoro-2,3-dimethylphenyl)-1-(5-oxo-4,5-dihydro-1,3,4-oxadiazol-2-yl)propyl)piperidine-1-sulfonamide] reads 1 to 10 µM; that for `Cc1ccc(F)c([C@@H](C)[C@H](NS(=O)(=O)N2CCC(N3CCCC3)CC2)c2n[nH]c(=O)o2)c1C` [Example 50, N-((1S,2R)-2-(6-fluoro-2,3-dimethylphenyl)-1-(5-oxo-4,5-dihydro-1,3,4-oxadiazol-2-yl)propyl)-4-(pyrrolidin-1-yl)piperidine-1-sulfonamide], 10 to 100 µM.
For `Cc1ccc(F)c([C@@H](C)[C@H](NS(=O)(=O)N2CCC(S(C)(=O)=O)CC2)c2n[nH]c(=O)o2)c1C` [Example 51, N-((1S,2R)-2-(6-fluoro-2,3-dimethylphenyl)-1-(5-oxo-4,5-dihydro-1,3,4-oxadiazol-2-yl)propyl)-4-(methylsulfonyl)piperidine-1-sulfonamide] the value was 10 to 100 µM; for `Cc1ccc(F)c([C@@H](C)[C@H](NS(=O)(=O)N2CCC(c3nncn3C)CC2)c2n[nH]c(=O)o2)c1C` [Example 52, N-((1S,2R)-2-(6-fluoro-2,3-dimethylphenyl)-1-(5-oxo-4,5-dihydro-1,3,4-oxadiazol-2-yl)propyl)-4-(4-methyl-4H-1,2,4-triazol-3-yl)piperidine-1-sulfonamide], 10 to 100 µM; for `Cc1ccc(F)c([C@H](C)[C@H](NS(=O)(=O)N2CCC(c3nncn3C)CC2)c2n[nH]c(=O)o2)c1C` [Example 53, N-((1S,2S)-2-(6-fluoro-2,3-dimethylphenyl)-1-(5-oxo-4,5-dihydro-1,3,4-oxadiazol-2-yl)propyl)-4-(4-methyl-4H-1,2,4-triazol-3-yl)piperidine-1-sulfonamide], 10 to 100 µM.
The result for `Cc1ccc(F)c([C@H](C)[C@H](NS(=O)(=O)N2CCC(Oc3ccccc3)CC2)c2n[nH]c(=O)o2)c1C` [Example 54, N-((1S,2S)-2-(6-fluoro-2,3-dimethylphenyl)-1-(5-oxo-4,5-dihydro-1,3,4-oxadiazol-2-yl)propyl)-4-phenoxypiperidine-1-sulfonamide] reads 10 to 100 µM; that for `Cc1ccc(F)c([C@@H](C)[C@H](NS(=O)(=O)N2CCC(Oc3ccccc3)CC2)c2n[nH]c(=O)o2)c1C` [Example 55, N-((1S,2R)-2-(6-fluoro-2,3-dimethylphenyl)-1-(5-oxo-4,5-dihydro-1,3,4-oxadiazol-2-yl)propyl)-4-phenoxypiperidine-1-sulfonamide], 0.1 to 1 µM.
For the compound `CNC(=O)C1CCN(S(=O)(=O)N[C@H](c2n[nH]c(=O)o2)[C@@H](C)c2c(F)ccc(C)c2C)CC1` [Example 56, 1-(N-((1S,2S)-2-(6-fluoro-2,3-dimethylphenyl)-1-(5-oxo-4,5-dihydro-1,3,4-oxadiazol-2-yl)-propyl)sulfamoyl)-N-methylpiperidine-4-carboxamide], the IC50 was 10 to 100 µM.
For `CNC(=O)C1CCN(S(=O)(=O)N[C@H](c2n[nH]c(=O)o2)[C@H](C)c2c(F)ccc(C)c2C)CC1` [Example 57, 1-(N-((1S,2R)-2-(6-fluoro-2,3-dimethylphenyl)-1-(5-oxo-4,5-dihydro-1,3,4-oxadiazol-2-yl)propyl)sulfamoyl)-N-methylpiperidine-4-carboxamide] the value was 1 to 10 µM; for `Cc1ccc(F)c([C@@H](C)[C@H](NS(=O)(=O)N2CCC3(CCNC3=O)CC2)c2n[nH]c(=O)o2)c1C` [Example 59, N-((1S,2R)-2-(6-fluoro-2,3-dimethylphenyl)-1-(5-oxo-4,5-dihydro-1,3,4-oxadiazol-2-yl)propyl)-1-oxo-2,8-diazaspiro[4.5]decane-8-sulfonamide], 10 to 100 µM.
For `Cc1ccc(F)c(C(C)[C@H](NS(=O)(=O)N2CCC(C3NC(=O)NC3=O)CC2)c2n[nH]c(=O)o2)c1C` (stereo partly drawn) [Example 60, 4-(2,5-dioxoimidazolidin-4-yl)-N-((1S)-2-(6-fluoro-2,3-dimethylphenyl)-1-(5-oxo-4,5-dihydro-1,3,4-oxadiazol-2-yl)propyl)piperidine-1-sulfonamide] the value was 0.1 to 1 µM; for `Cc1ccc(F)c([C@H](C)[C@H](NS(=O)(=O)N2CCC3(CCO3)CC2)c2n[nH]c(=O)o2)c1C` [Example 61, N-((1S,2S)-2-(6-fluoro-2,3-dimethylphenyl)-1-(5-oxo-4,5-dihydro-1,3,4-oxadiazol-2-yl)propyl)-1-oxa-7-azaspiro[3.5]nonane-7-sulfonamide], 10 to 100 µM.
On to `Cc1ccc(F)c(C(C)[C@H](NS(=O)(=O)N2CCC(CN3CCCCC3)CC2)c2n[nH]c(=O)o2)c1C` (stereo partly drawn) [Example 62, N-((1S)-2-(6-fluoro-2,3-dimethylphenyl)-1-(5-oxo-4,5-dihydro-1,3,4-oxadiazol-2-yl)propyl)-4-(piperidin-1-ylmethyl)piperidine-1-sulfonamide], for which the IC50 was in the range of 10 to 100 µM.
For `CC(=O)N(C)C1CCN(S(=O)(=O)N[C@H](c2n[nH]c(=O)o2)C(C)c2c(F)ccc(C)c2C)CC1` (stereo partly drawn) [Example 63, N-(1-(N-((1S)-2-(6-fluoro-2,3-dimethylphenyl)-1-(5-oxo-4,5-dihydro-1,3,4-oxadiazol-2-yl)propyl)sulfamoyl)piperidin-4-yl)-N-methylacetamide] the value was 1 to 10 µM.
For `Cc1ccc(F)c(C(C)[C@H](NS(=O)(=O)N2CCC(C(=O)N(C)C)CC2)c2n[nH]c(=O)o2)c1C` (stereo partly drawn) [Example 64, 1-(N-((1S)-2-(6-fluoro-2,3-dimethylphenyl)-1-(5-oxo-4,5-dihydro-1,3,4-oxadiazol-2-yl)propyl)sulfamoyl)-N,N-dimethylpiperidine-4-carboxamide] the value was 1 to 10 µM.

Values taken from patent US20240425490A1, “SULFAMIDE RIBONUCLEOTIDE REDUCTASE (RNR) INHIBITORS AND USES THEREOF” (Boundless Bio, Inc., priority 2021, published 2024).
